Series [1] can be described thus: Preparation and optimization of drug suspension formulations. Format: physicochemical. The note with it: for depot formation when injected into aqueous release medium: PBS, pH 7.4, 37° C. The procedure: The polymer based drug suspensions were prepared by: (1) Placebo formulation: 50:50 Poly(DL-lactide-co-glycolide) (PLGA), MW 10 or 27 kDa, or Poly(lactic acid) (PLA) MW 10 kDa, was mixed with N-methyl-2-pyrrolidone (NMP) or a combination of NMP and DMSO (e.g. 1:1 v/v) at various weight ratios of PLGA/solvent (w/w) and allowed to dissolve by continuous mixing at room temperature (Placebo). […] (2) Drug loading: […] (3) Depot formation: A sample from the resulting drug-loaded suspension formulation (30 μL, 30±3 mg) was injected into 200 mL of 0.01 M PBS pH 7.4 using a pipette and incubated at 37° C. for 24 h to produce a spherical implant, as an example. […] Of importance, but without being limited to any particular theory or mechanism of action, is the ratio of the polymer:solvent:drug that achieves high drug loading in a stable polymeric suspension formulation and which is correlated to the drug's saturation solubility in the solvent system.

Series [2] can be described thus: Drug saturation solubility studies. Format: physicochemical. The note with it: for solubility: 21 °C, thermodynamic from solid. On the procedure: The saturation concentration of each drug in various solvents and/or solvent combinations was determined. Drugs were then formulated in ISFI formulations containing 1:1, 1:1.5, 1:2, or 1:4 w/w ratios of PLGA/solvent, as exemplary starting points. For example, for DTG, 25 mg of DTG was added to individual vials containing 100 mg of solvent or PLGA/N-MP placebo ISFI solution. The mixture was mixed thoroughly using a vortex with short-warming for several cycles, and stirred at room temperature (RT), e.g. about 20-22° C., for about 24-48 h. Samples were subsequently centrifuged for 30 min at 13,000 rpm (Eppendorf Centrifuge 5417C, USA) to remove excess undissolved drug. Sample aliquots (1 mg, n=4) were collected from the saturated supernatant and diluted with acetonitrile (ACN). Drug concentration in the saturated aliquots was determined by HPLC analysis.
A reverse-phase HPLC analysis was carried out with a Finnigan Surveyor HPLC system (Thermo Finnigan, San Jose, California, USA) with a Photodiode Array (PDA) Plus Detector, auto-sampler, and LC Pump Plus. The stationary phase utilized for the analysis was a Inertsil ODS-3 column (4 μm, 4.6 Å˜150 mm, [GL Sciences, Torrance, CA]) maintained at 40° C. Chromatographic separation was achieved by gradient elution using a mobile phase consisting of 0.1% trifluoroacetic acid in water and ACN (H2O/ACN 95:5 v/v). The flow rate was 1.0 mL/min and the total run time was 25 min for each 25 μL injection.

A short description of series [3]: CAB MPT ISFI in vitro release studies. Format: physicochemical. Particulars: for in vitro release as single-drug ISFI versus co-formulated: CAB with either hormone, MPA or ENG with CAB (ENG up to 60 days). On the procedure:
Drug release kinetics from various implant formulations was evaluated by incubating solid implants (25 mg±5 mg) into 200 mL of release medium under sink conditions (0.01 M PBS pH 7.4 with 2% solutol HS) at 37° C. for up to 6 months. Sample aliquots (1 mL) were collected at various time points and replaced with fresh release medium. The release medium was completely removed and replaced with fresh medium every week to maintain sink conditions. Drug concentration in the release samples was quantified by HPLC using the method described above. Cumulative drug release was calculated from the HPLC analysis and normalized to the total mass of drug in the implant. All experiments were performed in quadruplicate.
In vitro release of single-drug ISFIs vs. MPT ISFIs were evaluated to assess drug-drug interactions. All ISFI liquid suspensions were stable and homogenous, elicited <15% burst release, sustained release for 90 days, and above target release rates.

Series [4] in a line: In vivo pharmacokinetics of MPT ISFI formulations. Details: species or system mice. The procedure: FIGS. 18A to 18E. Drug concentrations in plasma of MPT ISFI formulations. Plasma concentrations of (FIG. 18A) DTG (278 mg/kg, 50 μL injection) when co-formulated with MPA or ENG (n=6-12/timepoint per group), (FIG. 18B) CAB (1215 mg/kg, 50 μL injection) when co-formulated with MPA or ENG (n=6-12/timepoint per group), (FIG. 18C) MPA (70-76 mg/kg, 50 μL injection) when co-formulated with DTG or CAB (n=6-12/timepoint per group), and (FIG. 18D) ENG (70-151 mg/kg, 50 μL injection) when co-formulated with DTG or CAB (n=6-12/timepoint per group). […] (FIG. 18E) R^2 values for mathematical models of zero-order, first-order, and diffusion-controlled (Higuchi) release.
Pharmacokinetic (PK) studies were carried out in mice over 90 days to assess in vivo drug release of MPT ISFI formulations. DTG, CAB, ENG, and MPA plasma concentrations were quantified using a high-performance liquid chromatography-tandem mass spectrometry LC/MS-MS method and were plotted over 90 days (FIG. 18).
Moreover, the release kinetics of DTG, CAB, MPA, and ENG were assessed against three mathematical models (zero-order, first-order, and diffusion-controlled (Higuchi) (Gouda, Baishya et al. 2017)).

The conditions of series [5]: published CAB population PK model, mean parameter; cited from earlier work.
For a further series, the system named is HIV. Particulars: protein-adjusted, cited from earlier work; for 4×PA-IC90: benchmark for protection.
Series [6] can be described thus: Suspension stability studies. Format: physicochemical. The note with it: polymer:solvent 1:2. The procedure:
Eight (8) formulations were prepared and evaluated for stability. The formulations were placed in a water bath at 37° C. with shaking overnight and then vortexed for about 2 min upon removal. Sample aliquots (about 1 mg, n=4) were collected from each formulation and analyzed by HPLC to determine drug homogeneity distribution within the formulation. All suspension formulations were reevaluated for homogeneity after at least 24 h storage at room temperature (RT) to determine stability of suspensions at RT.

Series [7] in a line: In vitro release of chemotherapeutic ISFIs. Format: physicochemical. The procedure:
ISFI formulations were prepared with two different chemotherapeutic drugs, paclitaxel (PTX) and gemcitabine (Gem) and investigated for in vitro release kinetics (PTX and Gem ISFIs; FIGS. 21A-21C and 22A-22B) and for in vivo safety and pharmacokinetics (PTX ISFI; FIG. 23).

[8] abbreviates: DMSO, organic solvent or mixture, solvent DMSO.
Where [9] appears, read: 167 mg/g in 6:1 w/w PLA (10 kDa):Pluronic L61, NMP.
Setting [10] is: 200 mg/g in 9:1 w/w PLA (10 kDa):Pluronic L61, NMP.

Each structure is given as a SMILES string. Structures can show the parent of a compound that is named as a salt.

With `Nc1ccn([C@@H]2CS[C@H](CO)O2)c(=O)n1` [3TC, lamuvidine], the “suspension formation when loaded above saturation concentration in PLGA/solvent placebo” value (“suspension formation … in PLGA/solvent placebo” for short) in series [1] is “did not form successful suspensions”.

On to `C[C@H]1CO[C@@H]2Cn3cc(C(=O)NCc4ccc(F)cc4F)c(=O)c(O)c3C(=O)N12` [CAB, Cabotegravir], for which the solubility in series [2] ((NMP:DMSO 1:1 w/w):Tween 20 (9:1 w/w), organic solvent or mixture, solvent (NMP:DMSO 1:1 w/w):Tween 20 (9:1 w/w)) was determined as 107 ± 3.05 mg/mL; in series [2] (setting [8]), 38 mg/mL; in series [2] (NMP:DMSO (2:8 w/w), organic solvent or mixture, solvent NMP:DMSO (2:8 w/w)) it was 52.2 ± 6.39 mg/mL; in series [2] (NMP:DMSO (9:1 w/w), organic solvent or mixture, solvent NMP:DMSO (9:1 w/w)), 144 ± 1.99 mg/mL; in series [2] (NMP:Gelucire 44/14 (9:1 w/w), organic solvent or mixture, solvent NMP:Gelucire 44/14 (9:1 w/w)), 134 ± 3.81 mg/mL; in series [2] (NMP:HP-b-CD (6:4 w/w), organic solvent or mixture, solvent NMP:HP-b-CD (6:4 w/w)), 89.6 ± 5.49 mg/mL. The solubility was 158.2 ± 1.12 mg/mL in series [2] (NMP:HP-b-CD (9:1 w/w), organic solvent or mixture, solvent NMP:HP-b-CD (9:1 w/w)); 81.8 ± 2.35 mg/mL in series [2] (NMP:b-CD (6:4 w/w), organic solvent or mixture, solvent NMP:b-CD (6:4 w/w)); 0.014 ± 0.001 mg/mL in series [2] (PBS, aqueous buffer, solvent PBS). For the same molecule, the “Saturation Solubility” value in series [2] (solvent DMSO) was 38.0 mg/mL; in series [2] (solvent NMP), 131.7 ± 3.66 mg/mL; in series [2] (solvent NMP:DMSO (1:1 w/w)), 167.12 ± 12.04 mg/mL; in series [2] (solvent PBS + 2% Solutol), 0.06 ± 0.002 mg/mL. Also, in series [3], the “in vitro release as single-drug ISFI versus co-formulated” value is recorded as “comparable (p>0.05)”. Besides, the “plasma concentrations when co-formulated with either hormone (MPA or ENG)” value in series [4] (mouse, in vivo) is recorded as “no difference (p>0.05)”. Further, the “suspension formation … in PLGA/solvent placebo” value in series [1] is listed as “formed stable syringeable formulations”. Also, in series [1], the “depot formation when injected into aqueous release medium” value (shortened to “depot formation”) is listed as “formation of stable depots”. The CL in series [5] is 151 mL/h. In series [5], the Q is 507 mL/h. Also, the V2 in series [5] is reported as 5270 mL. The V3 in series [5] is reported as 2430 mL. Besides, in the series on HIV, the “4×PA-IC90” value is 0.664 µg/mL. Further, the “1×PA-IC90” value with HIV is 0.166 µg/mL.

`C[C@H]1CO[C@@H]2Cn3cc(C(=O)NCc4ccc(F)cc4F)c(=O)c(O)c3C(=O)N12` [CAB—Na salt, Cabotegravir sodium]: the “Saturation Solubility” value turned out to be 31.6 ± 0.96 mg/mL in series [2] (solvent DMSO), 47.5 ± 1.72 mg/mL in series [2] (solvent NMP), 49.1 ± 1.2 mg/mL in series [2] (solvent NMP:DMSO (1:1 w/w)) and 1.83 ± 0.7 mg/mL in series [2] (solvent PBS + 2% Solutol).

`C[C@@H]1CCO[C@H]2Cn3cc(C(=O)NCc4ccc(F)cc4F)c(=O)c(O)c3C(=O)N12` [DTG, Dolutegravir]: the solubility in series [2] (setting [8]) was determined as 55 ± 4.5 mg/mL. Moreover, the solubility in series [2] (NMP, organic solvent or mixture, solvent NMP) amounted to 269 ± 7.25 mg/mL. In addition, the solubility in series [2] (NMP:DMSO (1:1 w/w), organic solvent or mixture, solvent NMP:DMSO (1:1 w/w)) was 229.3 ± 1.6 mg/mL. For the same molecule, in series [2] (solvent PBS + 2% Solutol), the “Saturation Solubility” value was found to be 0.56 ± 0.004 mg/mL. In addition, in series [4] (mouse, in vivo), the “plasma concentrations when co-formulated with either hormone (MPA or ENG)” value was “no difference (p>0.05)”. For the same molecule, in series [1], the “suspension formation … in PLGA/solvent placebo” value is “formed stable syringeable formulations” and the “depot formation” value is recorded as “formation of stable depots”. In the series with HIV, the “4×PA-IC90” value is 0.256 µg/mL and the “1×PA-IC90” value is 0.064 µg/mL.

Turning to `C#C[C@]1(CO)O[C@@H](n2cnc3c(N)nc(F)nc32)C[C@@H]1O` [EFdA, Islatravir], in series [6] (setting [9]), the “24 h-Burst” value turned out to be 64% and the “Depot Forming” value was “YES”. For the same molecule, in series [6] (setting [10]), the “24 h-Burst” value is reported as 58% and the “Depot Forming” value is given as “YES”. In series [1], the “suspension formation … in PLGA/solvent placebo” value is recorded as “did not form successful suspensions” and the “depot formation” value is “did not form a stable spherical depot”.

On to `C#C[C@]1(O)CC[C@H]2[C@@H]3CCC4=CC(=O)CC[C@@H]4[C@H]3C(=C)C[C@@]21CC` [ENG, entonogestrel], for which the “in vitro release as single-drug ISFI versus co-formulated” value in series [3] is listed as “no difference (p>0.05)”. The “in vitro release as single-drug ISFI versus co-formulated with CAB” value in series [3] (beyond 60 days) is reported as “significantly different (p<0.05)”. For the same molecule, in series [4] (mouse, in vivo), the “plasma concentrations over the study” value was “maintained during the 90-day study”.

As for `Nc1ccn([C@@H]2O[C@H](CO)[C@@H](O)C2(F)F)c(=O)n1` [Gem, gemcitabine], the “in vitro release from ISFI” value in series [7] is “exhibited sustained release in vitro”.

In the case of `CC(=O)O[C@]1(C(C)=O)CC[C@H]2[C@@H]3C[C@H](C)C4=CC(=O)CC[C@]4(C)[C@H]3CC[C@@]21C` [MPA, medroxyprogesterone acetate], in series [2] (organic solvent or mixture, solvent NMP:DMSO (1:1 w/w)), the solubility is 33.6 ± 0.9 mg/mL. For the same molecule, the “in vitro release as single-drug ISFI versus co-formulated” value in series [3] was “difference (p<0.05)”. Moreover, the “best-fit model of in vivo release” value in series [4] (MPT ISFIs, 90-day PK) was “zero-order release model”. Moreover, the “plasma concentrations over the study” value in series [4] (in MPT ISFIs, 90-day study) is “maintained during the 90-day study”.

`CC(=O)O[C@H]1C(=O)[C@@]2(C)[C@H]([C@H](OC(=O)c3ccccc3)[C@]3(O)C[C@H](OC(=O)[C@H](O)[C@@H](NC(=O)c4ccccc4)c4ccccc4)C(C)=C1C3(C)C)[C@]1(OC(C)=O)CO[C@@H]1C[C@@H]2O` [PTX, paclitaxel]: the “in vitro release from ISFI” value in series [7] was “exhibited sustained release in vitro”. In series [7] (ISFI), the “burst release in 24 h” value is on record as < 2% and the sustained release duration was > 60 days.

(Values after patent US20240285769A1, “INJECTABLE, BIODEGRADABLE AND REMOVABLE POLYMER BASED DRUG SUSPENSION FOR ULTRA-LONG-ACTING DRUG DELIVERY” (The University of North Carolina at Chapel Hill, priority 2021, published 2024).)
